Reference: ChEMBL document CHEMBL6134822, “Discovery of a potent and in vivo anti-inflammatory Efficacious, P2Y14R antagonist with a novel benzisoxazoles scaffold by DNA-encoded chemical library technology” (Eur J Med Chem, 2025)
Active and inactive are the calls of the source. The rule behind the calls is not given here.

Key:
[1] = tested on: Mus musculus; assay: Anti-inflammatory activity in C57BL/6 mouse model of LPS-induced ALI assessed as reduction in TNF-alpha level in BALF at 2 to 6 mg/kg qd treated for 7 days by ELISA; type: functional, organism-based; conditions: dose 2-6 mg/kg, time 7.0 day
[2] = tested on: Mus musculus; assay: Anti-inflammatory activity in C57BL/6 mouse model of LPS-induced ALI assessed as reduction in IL-6 level in BALF at 2 to 6 mg/kg qd treated for 7 days by ELISA; type: functional, organism-based; conditions: dose 2-6 mg/kg, time 7.0 day
[3] = tested on: Mus musculus; assay: Anti-inflammatory activity in C57BL/6 mouse model of LPS-induced ALI assessed as reduction in lung tissue damage at 2 to 6 mg/kg qd treated for 7 days by H and E staining based analysis; type: functional, organism-based; conditions: dose 2-6 mg/kg, time 7.0 day
[4] = molecular target: T1, P2Y purinoceptor 14 (Homo sapiens, UniProt Q15391); assay: Antagonist activity at P2Y14 receptor (unknown origin) stably expressed in HEK293 cells assessed as inhibition of forskolin-induced intracellular cAMP production incubated for 30 mins in presence of UDPG by Camp-Glo kit assay; type: functional, cell-based
T1 sequence (Q15391 whole entry): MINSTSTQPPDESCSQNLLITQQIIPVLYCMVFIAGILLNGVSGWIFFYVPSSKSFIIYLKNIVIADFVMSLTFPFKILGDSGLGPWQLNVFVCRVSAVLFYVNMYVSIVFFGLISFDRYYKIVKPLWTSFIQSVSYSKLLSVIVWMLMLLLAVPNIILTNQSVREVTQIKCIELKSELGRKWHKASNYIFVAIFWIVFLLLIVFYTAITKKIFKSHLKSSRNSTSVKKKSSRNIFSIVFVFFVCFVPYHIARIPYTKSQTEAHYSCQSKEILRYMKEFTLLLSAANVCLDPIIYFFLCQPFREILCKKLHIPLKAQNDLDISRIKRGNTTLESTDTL

[5] = tested on: Mus musculus; assay: Anti-inflammatory activity in C57BL/6 mouse model of LPS-induced ALI assessed as reduction in IL-1beta level in BALF at 2 to 6 mg/kg qd treated for 7 days by ELISA; type: functional, organism-based; conditions: dose 2-6 mg/kg, time 7.0 day
[6] = Stability in simulated gastric fluid assessed as half life; type: physicochemical
[7] = molecular target: T1, P2Y purinoceptor 14; assay: Binding affinity to CM5 chip-immobilized P2Y14 receptor (unknown origin) assessed as equilibrium dissociation constant by SPR analysis
[8] = tested on: Mus musculus; assay: Anti-inflammatory activity in C57BL/6 mouse model of LPS-induced ALI assessed as reduction in MPO level in lung tissue at 2 to 6 mg/kg qd treated for 7 days; type: functional, organism-based; conditions: dose 2-6 mg/kg, time 7.0 day
[9] = Toxicity in C57BL/6 mouse model of LPS-induced ALI assessed as average body weight change at 2 to 6 mg/kg qd treated for 7 days; type: organism-based; conditions: in vivo, 168 h, dose 2-6 mg/kg, time 7 day
[10] = Microsomal stability in human liver microsomes assessed as half life; type: ADME, Microsome
[11] = Stability in simulated intestinal fluid assessed as half life; type: physicochemical
[12] = Microsomal stability in human liver microsomes assessed as intrinsic clearance; type: ADME, Microsome; conditions: read-out: CLH

CNC(=O)C1CN(C(=O)c2onc3ccccc23)CC12CCN(C(=O)c1noc3ccccc13)CC2 (configuration not stated)
Activity [1]: Active | Activity [2]: Active | Activity [3]: Active | IC50 [4]: 0.0236 µM | Activity [5]: Active | half-life [6]: > 50 h | Kd [7]: 7.26 µM | Activity [8]: Active | Activity [9]: Non-toxic | half-life [10]: 5.9 h | half-life [11]: > 5 h | microsomal CLint [12]: 25.6 µL/min/mg
